Target: p38a activated, mitogen-activated protein kinase-activated protein kinase 2 (MAPKAP-K2 or MK2) enzyme (Homo sapiens (Human), UniProt P49137)
Assay: MK2 Omnia continuous-read kinase assay for compound potency
Assay type: biochemical
Details: [MK-2]=0.4 nM, [ATP]=10 μM, [ST3-Sox]=10 μM; room temperature
How it was run: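 p38a-activated MK2 (0.4 nM) with 10 μM ATP (apparent Km) and 10 μM S/T3-Sox peptide in Tris pH 7.5 buffer with MgCl2, EGTA and DTT. Fluorescence (ex360/em485) read continuously for 120 min at room temperature. IC50 from initial linear slopes; apparent kinact/KI from kobs of exponential progress-curve fits.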

p38a activated, mitogen-activated protein kinase-activated protein kinase 2 (MAPKAP-K2 or MK2) enzyme, sequence (P49137 whole entry): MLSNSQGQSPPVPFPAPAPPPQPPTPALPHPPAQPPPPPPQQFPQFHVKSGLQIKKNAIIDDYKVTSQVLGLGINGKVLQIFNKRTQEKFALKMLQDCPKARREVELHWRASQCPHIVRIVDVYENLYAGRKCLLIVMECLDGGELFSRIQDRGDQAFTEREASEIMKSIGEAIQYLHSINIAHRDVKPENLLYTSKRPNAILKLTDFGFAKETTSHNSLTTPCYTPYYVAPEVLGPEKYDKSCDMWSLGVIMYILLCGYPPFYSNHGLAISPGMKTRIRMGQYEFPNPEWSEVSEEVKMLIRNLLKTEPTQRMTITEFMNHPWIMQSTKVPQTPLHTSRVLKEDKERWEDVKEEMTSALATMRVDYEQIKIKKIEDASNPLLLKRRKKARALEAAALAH

IC50 [nM]	SMILES
137	C[C@@H]1CNc2c(sc3ccc4nc(-c5cc(Cl)nc(N6CCN(C)CC6)n5)ccc4c23)C(=O)N1 [Example I-17, (R)-3-(6-chloro-2-(4-methylpiperazin-1-yl)pyrimidin-4-yl)-10-methyl-9,10,11,12-tetrahydro-8H-[1,4]diazepino[5′,6′:4,5]thieno[3,2-f]quinolin-8-one]
12	C[C@@H]1CNc2c(sc3ccc4nc(-c5cc(Cl)nc(COC6CCNCC6)n5)ccc4c23)C(=O)N1 [Example I-14, (R)-3-(6-chloro-2-((piperidin-4-yloxy)methyl)pyrimidin-4-yl)-10-methyl-9,10,11,12-tetrahydro-8H-[1,4]diazepino[5′,6′:4,5]thieno[3,2-f]quinolin-8-one]
206	C=Cc1cc(-c2ccc3c(ccc4sc5c(c43)NC[C@@H](C)NC5=O)n2)cc(CN2CCC(OC(F)(F)F)CC2)n1 [Example I-189, (R)-10-methyl-3-(2-((4-(trifluoromethoxy)piperidin-1-yl)methyl)-6-vinylpyridin-4-yl)-9,10,11,12-tetrahydro-8H-[1,4]diazepino[5′,6′:4,5]thieno[3,2-f]quinolin-8-one]
92	C=Cc1cc(-c2ccc3c(ccc4sc5c(c43)NC[C@@H](C)NC5=O)n2)c(CN2CCC(C(F)(F)F)CC2)cn1 [Example I-212, (R)-10-methyl-3-(5-((4-(trifluoromethyl)piperidin-1-yl)methyl)-2-vinylpyridin-4-yl)-9,10,11,12-tetrahydro-8H-[1,4]diazepino[5′,6′:4,5]thieno[3,2-f]quinolin-8-one]
60	C[C@@H]1CNc2c(sc3ccc4nc(-c5cc(Cl)nc(CO)c5)ccc4c23)C(=O)N1 [Example I-97, (R)-3-(2-chloro-6-(hydroxymethyl)pyridin-4-yl)-10-methyl-9,10,11,12-tetrahydro-8H-[1,4]diazepino[5′,6′:4,5]thieno[3,2-f]quinolin-8-one]
189	C#Cc1cc(-c2ccc3c(ccc4sc5c(c43)NC[C@@H](C)NC5=O)n2)cc(N2CCC(OC)CC2)n1 [Example I-159, (R)-3-(2-ethynyl-6-(4-methoxypiperidin-1-yl)pyridin-4-yl)-10-methyl-9,10,11,12-tetrahydro-8H-[1,4]diazepino[5′,6′:4,5]thieno[3,2-f]quinolin-8-one]
291	COc1cnc(Cl)nc1-c1ccc2c(ccc3sc4c(c32)NC[C@@H](C)NC4=O)n1 [Example I-10, (R)-3-(2-chloro-5-methoxypyrimidin-4-yl)-10-methyl-9,10,11,12-tetrahydro-8H-[1,4]diazepino[5′,6′:4,5]thieno[3,2-f]quinolin-8-one]
1	C=Cc1nccn1-c1ccc2c(ccc3sc4c(c32)NC[C@@H](C)NC4=O)n1 [Example I-164, (R)-10-methyl-3-(2-vinyl-1H-imidazol-1-yl)-9,10,11,12-tetrahydro-8H-[1,4]diazepino[5′,6′:4,5]thieno[3,2-f]quinolin-8-one]
23	C=Cc1cc(-c2ccc3c(ccc4sc5c(c43)NC[C@@H](C)NC5=O)n2)c(CN2CCOCC2)cn1 [Example I-153, (R)-10-methyl-3-(5-(morpholinomethyl)-2-vinylpyridin-4-yl)-9,10,11,12-tetrahydro-8H-[1,4]diazepino[5′,6′:4,5]thieno[3,2-f]quinolin-8-one]
283	C[C@@H]1CNc2c(sc3ccc4nc(-c5cc(CN6CCN(C)CC6)nc(Cl)n5)ccc4c23)C(=O)N1 [Example I-87, (R)-3-(2-chloro-6-((4-methylpiperazin-1-yl)methyl)pyrimidin-4-yl)-10-methyl-9,10,11,12-tetrahydro-8H-[1,4]diazepino[5′,6′:4,5]thieno[3,2-f]quinolin-8-one]
210	C/C=C/c1cc(-c2ccc3c(ccc4sc5c(c43)NC[C@@H](C)NC5=O)n2)c(C)cn1 [Example I-265, (R,E)-10-methyl-3-(5-methyl-2-(prop-1-en-1-yl)pyridin-4-yl)-9,10,11,12-tetrahydro-8H-[1,4]diazepino[5′,6′:4,5]thieno[3,2-f]quinolin-8-one]
40	C/C=C/c1cc(-c2ccc3c(ccc4sc5c(c43)NC[C@@H](C)NC5=O)n2)nc(COCC)n1 [Example I-35, (R,E)-3-(2-(ethoxymethyl)-6-(prop-1-en-1-yl)pyrimidin-4-yl)-10-methyl-9,10,11,12-tetrahydro-8H-[1,4]diazepino[5′,6′:4,5]thieno[3,2-f]quinolin-8-one]
61	C=Cc1cccc(-c2ccc3c(ccc4sc5c(c43)NC[C@@H](C)NC5=O)n2)n1 [Example I-54, (R)-10-methyl-3-(6-vinylpyridin-2-yl)-9,10,11,12-tetrahydro-8H-[1,4]diazepino[5′,6′:4,5]thieno[3,2-f]quinolin-8-one]
111	C=Cc1cc(-c2ccc3c(ccc4sc5c(c43)NC[C@@H](C)NC5=O)n2)cc(CN2CCC3(CC2)CC3(F)F)n1 [Example I-141, (R)-3-(2-((1,1-difluoro-6-azaspiro[2.5]octan-6-yl)methyl)-6-vinylpyridin-4-yl)-10-methyl-9,10,11,12-tetrahydro-8H-[1,4]diazepino[5′,6′:4,5]thieno[3,2-f]quinolin-8-one]
568	C#Cc1ncc(CO)c(-c2ccc3c(ccc4sc5c(c43)NC[C@@H](C)NC5=O)n2)n1 [Example I-79, (R)-3-(2-ethynyl-5-(hydroxymethyl)pyrimidin-4-yl)-10-methyl-9,10,11,12-tetrahydro-8H-[1,4]diazepino[5′,6′:4,5]thieno[3,2-f]quinolin-8-one]
4	C[C@@H]1CNc2c(sc3ccc4nc(-c5cc(Cl)nc(C#CC(C)(C)N)n5)ccc4c23)C(=O)N1 [Example I-64, (R)-3-(2-(3-amino-3-methylbut-1-yn-1-yl)-6-chloropyrimidin-4-yl)-10-methyl-9,10,11,12-tetrahydro-8H-[1,4]diazepino[5′,6′:4,5]thieno[3,2-f]quinolin-8-one]
13	[2H]C([2H])([2H])N1CCN(c2cc(-c3ccc4c(ccc5sc6c(c54)NC[C@@H](C)NC6=O)n3)cc(C=C)n2)CC1 [Example I-171, (R)-10-methyl-3-(2-(4-(methyl-d3)piperazin-1-yl)-6-vinylpyridin-4-yl)-9,10,11,12-tetrahydro-8H-[1,4]diazepino[5′,6′:4,5]thieno[3,2-f]quinolin-8-one]
97	C[C@@H]1CNc2c(sc3ccc4nc(-c5nc(Cl)ncc5C#N)ccc4c23)C(=O)N1 [Example I-9, (R)-2-chloro-4-(10-methyl-8-oxo-9,10,11,12-tetrahydro-8H-[1,4]diazepino[5′,6′:4,5]thieno[3,2-f]quinolin-3-yl)pyrimidine-5-carbonitrile]
34	C#Cc1cc(-c2ccc3c(ccc4sc5c(c43)NC[C@@H](C)NC5=O)n2)cc(CN2CCN(C)CC2)n1 [Example I-126, (R)-3-(2-ethynyl-6-((4-methylpiperazin-1-yl)methyl)pyridin-4-yl)-10-methyl-9,10,11,12-tetrahydro-8H-[1,4]diazepino[5′,6′:4,5]thieno[3,2-f]quinolin-8-one]
86	C[C@@H]1CNc2c(sc3ccc4nc(-n5cc(Cl)cn5)ccc4c23)C(=O)N1 [Example I-152, (R)-3-(4-chloro-1H-pyrazol-1-yl)-10-methyl-9,10,11,12-tetrahydro-8H-[1,4]diazepino[5′,6′:4,5]thieno[3,2-f]quinolin-8-one]
9	C=Cc1cc(-c2ccc3c(ccc4sc5c(c43)NC[C@@H](C)NC5=O)n2)c(C)nn1 [Example I-136, (R)-10-methyl-3-(3-methyl-6-vinylpyridazin-4-yl)-9,10,11,12-tetrahydro-8H-[1,4]diazepino[5′,6′:4,5]thieno[3,2-f]quinolin-8-one]
50	C=Cc1cc(-c2ccc3c(ccc4sc5c(c43)NC[C@@H](C)NC5=O)n2)c(OC)nn1 [Example I-127, (R)-3-(3-methoxy-6-vinylpyridazin-4-yl)-10-methyl-9,10,11,12-tetrahydro-8H-[1,4]diazepino[5′,6′:4,5]thieno[3,2-f]quinolin-8-one]
101	C=Cc1cnn(-c2ccc3c(ccc4sc5c(c43)NC[C@@H](C)NC5=O)n2)c1 [Example I-148, (R)-10-methyl-3-(4-vinyl-1H-pyrazol-1-yl)-9,10,11,12-tetrahydro-8H-[1,4]diazepino[5′,6′:4,5]thieno[3,2-f]quinolin-8-one]
7	C=Cc1ncc(COCC)c(-c2ccc3c(ccc4sc5c(c43)NC[C@@H](C)NC5=O)n2)n1 [Example I-5, (R)-3-(5-(ethoxymethyl)-2-vinylpyrimidin-4-yl)-10-methyl-9,10,11,12-tetrahydro-8H-[1,4]diazepino[5′,6′:4,5]thieno[3,2-f]quinolin-8-one]
5	C#Cc1ncc(F)c(-c2ccc3c(ccc4sc5c(c43)NC[C@@H](C)NC5=O)n2)n1 [Example I-1, (R)-3-(2-ethynyl-5-fluoropyrimidin-4-yl)-10-methyl-9,10,11,12-tetrahydro-8H-[1,4]diazepino[5′,6′:4,5]thieno[3,2-f]quinolin-8-one]
95	C=Cc1csc(-c2ccc3c(ccc4sc5c(c43)NC[C@@H](C)NC5=O)n2)n1 [Example I-149, (R)-10-methyl-3-(4-vinylthiazol-2-yl)-9,10,11,12-tetrahydro-8H-[1,4]diazepino[5′,6′:4,5]thieno[3,2-f]quinolin-8-one]

SMILES	IC50 [nM]
C[C@@H]1CNc2c(sc3ccc4nc(-c5cc(Cl)nc(C6=CCN(C)CC6)c5)ccc4c23)C(=O)N1 [Example I-100, (R)-3-(6-chloro-1′-methyl-1′,2′,3′,6′-tetrahydro-[2,4′-bipyridin]-4-yl)-10-methyl-9,10,11,12-tetrahydro-8H-[1,4]diazepino[5′,6′:4,5]thieno[3,2-f]quinolin-8-one]	62
C[C@@H]1CNc2c(sc3ccc4nc(-c5cc(Cl)nc(Cl)n5)ccc4c23)C(=O)N1 [Example I-58, (R)-3-(2,6-dichloropyrimidin-4-yl)-10-methyl-9,10,11,12-tetrahydro-8H-[1,4]diazepino[5′,6′:4,5]thieno[3,2-f]quinolin-8-one]	16

From patent publication US20240190890A1, “MK2 INHIBITORS AND USES THEREOF” (Bristol-Myers Squibb Company, priority 2022, published 2024)
